Source: US10774122B2, “ERG targeted therapy” (The Regents of the University of Michigan, priority 2017, dated 2020)
Like-named read-outs stand apart in the source and are kept apart here. Where a SMILES comes first, the peptide text is derived from it. Where no end group is shown, it is not given here. [ ]: non-standard residue; d: D form.

How the values were obtained:
[1] = biological target: T1, ERG (Homo sapiens, UniProt P11308); test: ERG:peptide binding by biolayer interferometry (OctetRED); conditions: for binding to ERG: OctetRED, result in words
T1 sequence (P11308 1-479): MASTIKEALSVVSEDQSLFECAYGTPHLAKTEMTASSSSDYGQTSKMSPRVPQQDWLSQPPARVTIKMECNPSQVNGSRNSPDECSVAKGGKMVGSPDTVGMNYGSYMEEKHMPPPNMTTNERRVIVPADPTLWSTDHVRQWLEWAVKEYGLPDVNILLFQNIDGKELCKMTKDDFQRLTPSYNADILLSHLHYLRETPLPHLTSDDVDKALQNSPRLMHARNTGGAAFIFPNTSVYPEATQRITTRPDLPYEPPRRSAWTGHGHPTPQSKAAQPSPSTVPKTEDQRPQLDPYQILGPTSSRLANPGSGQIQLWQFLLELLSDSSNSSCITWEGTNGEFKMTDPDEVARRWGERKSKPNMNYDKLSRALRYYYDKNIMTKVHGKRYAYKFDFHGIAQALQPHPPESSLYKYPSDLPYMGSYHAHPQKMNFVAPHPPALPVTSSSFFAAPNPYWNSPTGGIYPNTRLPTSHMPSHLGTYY
Method: (§1) The interaction coefficients between ERG and synthetic peptides or peptidomimetics were determined by biolayer interferometry technology using the Octet Red system (ForteBio). Purified ERG and GUS proteins were biotinylated by EZLink NHS-PEG4 Biotinylation Kit (Thermo Scientific) following the manufacturer's protocol and any unincorporated biotin was removed from the reactions with Zeba 2 ml desalt columns (Thermo). Biotinylated proteins (500 μg/ml) were then incubated with super streptavidin biosensors in binding buffer (20 mM HEPES pH 7.4, 150 mM NaCl), blocked with 10 μg/ml biocytin and washed three times in binding buffer. Peptides were serially diluted in binding buffer, mixed with the protein-coupled biosensors and peptidomimetic:protein association/dissociation was monitored for 10 min at 25° C. Nonspecific binding from the signal obtained from peptidomimetic:GUS interactions was subtracted from that of peptidomimetic:ERG interactions and baseline signal drift was controlled by monitoring immobilized ERG without peptide. Octet Red analysis software was used to analyze the data.

[2] = biological target: T2, ERG (Homo sapiens, UniProt P11308); test: Kd[μM]
T2 construct: cDNAs encoding full-length ERG and GUS were cloned into pDEST10 vector; His; made in house; host or cells: SF9 insect cells (Bac-to-Bac baculovirus)
Description: Table printed on a drawing sheet, FIG. 14 Head of the field: Kd[μM] […] Where the first naming reader finds the target: passage: the importance of the PYL residues for binding to ERG was identified

[3] = biological target: T2, ERG; test: Kd[μM]; remark: listed apart in the source
Description: Table printed on a drawing sheet, FIG. 13
Head of the field: Kd[μM]
Where the first naming reader finds the target: passage: Capping of the EIP1 peptide at both the N- and C-terminus abolished binding to ERG (FIG. 13).

[4] = biological target: ERG_Y373A (Homo sapiens, UniProt P11308, Y373A); test: biochemical; type: binding
Method: as §1

[5] = biological target: T3, ERG:EBS DNA interaction (Homo sapiens, UniProt P11308); type: biochemical
T3 construct: endogenous in cells; host or cells: VCaP cells (ATCC): cultured cells, lysates or extracts, or VCaP xenograft tumours in nude mice
Method: To determine the inhibitory activity of the peptide against the ERG:DNA interaction, electrophoretic mobility shift assays (EMSAs) were performed. Double stranded ERG ETS binding sequence (5′ […] 3′ (SEQ ID NO:109)) was end labeled using Biotin 3′ End DNA Labeling Kit (Pierce). For each binding reaction, VCaP cell extract was incubated with 1 μg poly d (I-C), 2 μl of EMSA binding buffer (1.5% glycerol, 75 mM KCl, 0.375 mM DTT, 12.5 mM NaCl, 0.375 mM phenylmethylsulfonyl fluoride [PMSF]) and 5 μM biotin-labeled EBS in the presence or absence of the peptides as indicated for 30 min at room temperature. The reaction mixtures were loaded onto 6% TBE gels (Invitrogen) and electrophoresed at 120 V for 2 hr at 4° C. in […] Tris-Borate-EDTA (TBE). Probes were transferred to nylon membrane (Biodyne B, Pall) in a semidry blotting device at 300 mA for 30 min. The membrane was baked for 30 min at 85° C. in a dry oven. Biotinylated oligonucleotides were detected by probing with streptavidin-conjugated horseradish peroxidase and visualized by enhanced chemiluminescence (Pierce).

[6] = test system: VCaP cells; test: Immunofluorescence confocal microscopy of FITC-labeled peptide uptake; type: cell-based; conditions: FITC-labeled peptides
Method: After 2 hours incubation, cells were washed two times in PBS, and fixed for 15 min in 100% methanol. After washing an additional three times in PBS, cells were mounted using Vectashield with DAPI (Vector laboratories). Images were captured using 100× oil objective lens on an Olympus Confocal microscope at the University of Michigan microscopy imaging lab.

[7] = test system: Ewing sarcoma cells containing the EWS-ERG fusion; type: cell-based
Description: (A) Pull down of ERG in Ewing sarcoma cells containing a EWS-ERG fusion and reduced tumor growth in xenografts models of Ewing sarcoma. (B) Tumors containing the EWS-FLI1 fusion or osteosarcomas (A204) are not affected by treatments with peptides of the disclosure. […] Similarly, invasion potential was reduced by EIP1 and EIP2 treatment in Ewing sarcoma cells containing the EWS-ERG fusion.

[8] = test system: cells containing the EWS-FLI1 fusion; test: DNA damage in Ewing sarcoma cells; type: cell-based
[9] = biological target: T4, ERG:AR interaction (Homo sapiens, UniProt P11308)
T4 sequence (P11308 1-479): T1 sequence (P11308 1-479)
Method: (§2) Halo-ERG fusion protein was expressed using in vitro transcription/translation system as described above. […] Protein mixtures were incubated with or without the peptides in PBS-T (0.1% Tween) at 4° C. overnight. Simultaneously, HaloLink beads (Promega) were blocked in 5% BSA at 4° C. overnight. The next day 10 μl of HaloLink beads were mixed with the protein-peptide mixture, incubated at RT for 1 hour, washed with 4× in PBS-T and eluted into SDS sample buffer. […] HaloLink beads without incubation with fusion proteins were used as negative controls.

[10] = biological target: T5, ERG:DNA-PKcs interaction (Homo sapiens, UniProt P11308)
T5 sequence (P11308 1-479): T1 sequence (P11308 1-479)
Method: as §2

[11] = biological target: T6, ERG in VCaP cells (Homo sapiens, UniProt P11308)
Method: The following primary and secondary antibodies were used: mouse-anti-ERG (Biocare) and goat-anti-mouse-Cy5 (Jackson Immuno-Research) respectively. […] Emission from individual fluorophores was detected sequentially. Image processing was performed in Imaris and colocalization analysis was done in Imaris (Bitplane). Colocalization was calculated as the percentage of FITC spots that colocalized with ERG spots in the nucleus.

[12] = biological target: ERG:AR interaction (Homo sapiens, UniProt P11308); test: IP-Western blot in VCaP cells
Method: (§3) VCaP cells were seeded in 6-well plates at 0.5×10^6 cells/ml and after allowing cells to attach, cells were harvested and homogenized in NP40 lysis buffer (Sigma) containing a complete protease inhibitor cocktail (Roche). Ten micrograms of each protein extract was boiled in SDS sample buffer, size fractionated by SDS-PAGE, and transferred onto a PVDF membrane (GE Healthcare). […] Following three washes in TBS-T, the blots were incubated with horseradish peroxidase conjugated secondary antibody and the signals visualized by enhanced chemiluminescence system according to manufacturer's instructions (GE Healthcare).
(§4) Cell pellets or tumors treated with or without the peptidomimetics were lysed in cell lysis buffer (20 mM MOPS, pH 7.0, 2 mM EGTA, 5 mM EDTA, 30 mM sodium fluoride, 60 mM β-glycerophosphate, 20 mM sodium pyrophosphate, 1 mM sodium orthovanadate, 1% Triton X-100, 1 mM DTT, protease inhibitor cocktail (Roche)). Cell lysates (0.5-1.0 mg) were pre-cleaned with protein A/G agarose beads (Santa Cruz) by incubation for 1 hour with shaking at 4° C. followed by centrifugation at 2000 rpm for 3 minute. Lysates were then incubated with 2 μg ERG antibody (Santa Cruz, C-17) at 4° C. for 4 hours with shaking prior to addition of 20 μl protein A/G agarose beads and incubated at 4° C. overnight. […] Samples were then analyzed by SDS-PAGE and Western blot analysis as described above.

[13] = biological target: T7, ERG:DNA-PKcs interaction (Homo sapiens, UniProt P11308); test: IP-Western blot in VCaP cells
T7 sequence (P11308 33-479 limits assumed): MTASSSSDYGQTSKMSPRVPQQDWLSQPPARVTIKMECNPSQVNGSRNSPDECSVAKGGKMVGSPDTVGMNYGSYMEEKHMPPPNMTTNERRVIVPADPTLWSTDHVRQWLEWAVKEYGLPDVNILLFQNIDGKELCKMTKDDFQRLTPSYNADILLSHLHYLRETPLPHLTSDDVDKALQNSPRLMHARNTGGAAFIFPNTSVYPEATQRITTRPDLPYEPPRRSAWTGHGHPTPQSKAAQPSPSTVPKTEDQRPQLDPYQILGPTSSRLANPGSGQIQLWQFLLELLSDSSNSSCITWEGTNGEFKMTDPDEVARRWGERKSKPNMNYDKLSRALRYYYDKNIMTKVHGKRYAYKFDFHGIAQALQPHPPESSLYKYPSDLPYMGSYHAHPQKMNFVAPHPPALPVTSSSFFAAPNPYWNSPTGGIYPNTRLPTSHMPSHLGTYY
Method: as §3, §4

[14] = test system: RWPE1-ERG cells; test: Boyden chamber basement membrane matrix invasion assay
Method: (§5) Complete media was added to the lower chamber as a chemoattractant. […] Invasive cells, located on the lower side of the membranes, were stained with crystal violet, air dried and photographed. To quantify the relative number of invaded cells, colorimetric assays were performed by treating the inserts with 150 μl of 10% acetic acid (v/v) and measuring absorbance of each sample in a spectrophotometer at 560 nm (GE Healthcare).

[15] = test system: PC3-ERG cells; test: as above
Method: as §5

[16] = test system: VCaP (ERG fusion-positive) xenografts; test: VCaP xenograft mouse model, tumor growth; conditions: 20 mg/kg dose, p<0.01
Method: Athymic Nude-Foxnlnu male mice were procured from Harlan Laboratories, Inc (Indianapolis, Ind.). All procedures involving mice were approved by the University Committee on Use and Care of Animals (UCUCA) at the University of Michigan and conformed to their relevant regulatory standards. […] Statistical significance for Kaplan-Meier analysis was determined by the log-rank (Mantel-Cox) test.
Athymic Nude-Foxnlnu male mice were procured from Harlan Laboratories, Inc. (Indianapolis, Ind.). VCaP (2×10^6 cells) or PC3 (5×10^5 cells) were resuspended in 100 μl of saline with 50% Matrigel (BD Biosciences, Becton Drive, NJ) and implanted subcutaneously into the flank regions on both sides of the mice. Mice were anesthetized using a cocktail of xylazine (80-120 mg/kg, IP) and ketamine (10 mg/kg, IP) for chemical restraint before tumor cells implantation. For short term assays, all tumors were staged for three weeks before starting peptidomimetic treatment. After week 3 (VCaP cells) or 12 days (PC3 cells), mice (10 per treatment group) were treated with peptidomimetics (25 mg/kg or 10 mg/kg as indicated, IP) daily five times a week.
Tumor growth was recorded every three days using digital calipers and tumor volumes were calculated using the formula (π/6) (L×W2), where L=length of tumor and W=width. Body weight was monitored weekly over the course of the study. At the end of the xenograft studies, mice were anaesthetized and blood was collected by cardiac puncture and tumors were preserved for further biochemical and immunofluorescence analysis. […] Survival analysis was carried out using the GraphPad Prism 4.0 software (GraphPad Software, San Diego, Calif.). Statistical significance for Kaplan-Meier analysis was determined by the log-rank (Mantel-Cox) test. All procedures involving mice were approved by the University Committee on Use and Care of Animals (UCUCA) at the University of Michigan and conform to their relevant regulatory standards.

[17] = biological target: T8, TMPRSS2:ERG gene fusion product (endogenous ERG) (Homo sapiens, UniProt P11308); test: Biotin-peptide pull-down from VCaP cell lysates, immunoblot and mass spectrometry; type: binding; conditions: 53 kDa band of pull-downs, mass spectrometry
T8 construct: endogenous in cells; host or cells: VCaP cells (ATCC): cultured cells, lysates or extracts, or VCaP xenograft tumours in nude mice
Method: Approximately 1 mg of soluble VCaP cell lysate prepared in RIPA buffer (Invitrogen) was incubated with varying amounts of biotinylated peptides for 2 hours at 4° C. HaloLink agarose beads (20 μl) were added to the peptide-lysate mixture and incubated for an additional 4 hours. Beads were then pelleted by centrifugation, washed three times in PBS-T and loaded into an SDSPAGE gel followed by Western blot analysis. Total VCaP cell lysate was loaded for positive control.
The samples were treated with SDS loading buffer supplied with 10 mM DTT for 5 min at 85° C. The proteins were alkylated by adding iodoacetamide to the final concentration of 15 mM. The samples were subjected to SDS-PAGE and the whole lanes were cut out and digested with trypsin in-gel for 2 hours. […]
The resulting spectrum files were transformed into MGF format by MSConvert software and interrogated by MASCOT 2.4 search engine using human UniProt database version 15 concatenated with reverse sequences for estimation of false discovery rate (FDR) and with a list of common contaminants. […] The peptide FDR was calculated as 2×(decoy_hits)/(target+decoy hits). Spectral counts for all detected proteins were assembled using an in-house written Python script. […]

[18] = biological target: T6, ERG in VCaP cells; test: Immunoblot of ERG protein in treated VCaP cells; conditions: proteasome inhibitor co-treatment
Method: as §3

[19] = biological target: T4, ERG:AR interaction; test: In vitro peptide competitive pull-down assay (cell-free); conditions: Halo-ERG with recombinant AR, increasing peptide concentrations
Method: as §2

[20] = biological target: T5, ERG:DNA-PKcs interaction; test: as above; conditions: Halo-ERG with purified DNA-PKcs, increasing peptide concentrations
Method: as §2

Sequence of ERG_Y373A (P11308 whole entry Y373A): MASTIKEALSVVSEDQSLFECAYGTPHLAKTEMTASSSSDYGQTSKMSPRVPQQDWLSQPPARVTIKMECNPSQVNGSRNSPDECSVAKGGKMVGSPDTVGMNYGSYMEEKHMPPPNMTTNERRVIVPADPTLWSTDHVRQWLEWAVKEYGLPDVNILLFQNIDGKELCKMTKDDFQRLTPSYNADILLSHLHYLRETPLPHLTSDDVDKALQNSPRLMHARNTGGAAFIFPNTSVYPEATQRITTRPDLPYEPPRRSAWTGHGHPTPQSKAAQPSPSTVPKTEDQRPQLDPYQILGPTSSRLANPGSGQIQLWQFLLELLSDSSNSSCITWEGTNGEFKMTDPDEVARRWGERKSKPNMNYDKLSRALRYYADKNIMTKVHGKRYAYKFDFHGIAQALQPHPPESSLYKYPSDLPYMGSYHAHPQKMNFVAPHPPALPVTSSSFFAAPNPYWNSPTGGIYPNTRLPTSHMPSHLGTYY

LRFGTLP [LRFGTLP]
Kd [1]: 7.9 µM

Ac-LPPYLF-NH2 [6LF-A, Ac- LPPYLF -NH2]
Kd [2]: > 100 µM

H-PPYLFT-NH2 [6PT-N, H2N- PPYLFT -NH2]
Kd [2]: 11.5 µM

Ac-LPPELFT-NH2 [7LT-4E, Ac- LPPELFT -NH2]
Kd [3]: 3.6 µM

LPPYLFT [EIP1, LPPYLFT]
Kd [4]: > 100 µM
disruption of ERG:EBS DNA interaction [5]: effectively disrupted
entry into VCaP cells [6]: did not penetrate the cell membrane
DNA damage caused by oncogenic ERG (EWS-ERG fusion) [7]: reduce DNA damage
invasion potential [7]: reduced
DNA damage in cells containing the EWS-FLI1 fusion [8]: no effect
disruption of direct ERG:AR interaction [9]: disrupted
disruption of direct ERG:DNA-PKcs interaction [10]: disrupted
extent of green-red colocalization in the nucleus [11]: 78±5%
Kd ([1]; OctetRED biolayer interferometry, values in text): 0.6 µM

LPPYLFTGGRKKRRQRRRG [TAT-EIP1]
block of ERG:AR interaction in VCaP cells [12]: significantly blocked
block of ERG:DNA-PKcs interaction in VCaP cells [13]: significantly blocked
invasion of RWPE1-ERG cells [14]: significantly attenuated
PC3 cell invasion driven by overexpression of ERG [15]: inhibited

CC(C)C[C@@H](NC(=O)[C@@H](CO)NC(=O)[C@@H](Cc1ccccc1)NC(=O)CNC(=O)[C@@H](CO)NC(=O)[C@@H](CC(C)C)NC(=O)[C@H]1CCCN1C(=O)CNC(=O)CNC(=O)[C@@H](CCCNC(=N)N)NC(=O)[C@@H](CCCCN)NC(=O)[C@@H](CCCCN)NC(=O)[C@@H](CCCNC(=N)N)NC(=O)[C@@H](CCCNC(=N)N)NC(=O)[C@@H](CCC(N)=O)NC(=O)[C@@H](CCCNC(=N)N)NC(=O)[C@@H](CCCNC(=N)N)NC(=O)[C@@H](CCCNC(=N)N)NC(=O)CN)C(=O)O [RI-EIP2] (H-G[dR][dR][dR][dQ][dR][dR][dK][dK][dR]GG[dP][dL][dS]G[dF][dS][dL]-OH)
tumor growth of VCaP xenografts [16]: significantly delayed tumor growth
Kd [1]: 1.28 µM

LSFGSLPGGRKKRRQRRRG [TAT-EIP2]
block of ERG:AR interaction in VCaP cells [12]: significantly blocked
block of ERG:DNA-PKcs interaction in VCaP cells [13]: significantly blocked
invasion of RWPE1-ERG cells [14]: significantly attenuated
PC3 cell invasion driven by overexpression of ERG [15]: inhibited

LPPTFLY [Scr, LPPTFLY, reference compound]
binding to ERG [1]: failed to bind

FTFGSLP [FTFGSLP]
Kd [1]: 3.9 µM

LSAGSAP [muEIP2, LSAGSAP, reference compound]
spectral counts for the ERG peptide NTGGAAFIFPNTSVYPEATQR [17]: 2 spectral counts
binding to ERG [1]: failed to bind

CC(C)C[C@H](NC(=O)[C@H](CCc1ccccc1)NC(=O)CN1CCOCC1)C(=O)N[C@@H](Cc1ccccc1)C(=O)N[C@@H](CC(C)C)C(=O)[C@@]1(C)CO1 [carfilzomib]
effect on RI-EIP1-induced degradation of ERG protein [18]: completely inhibited

LPPALFT [muEIP1, LPPALFT]
disruption of direct ERG:AR interaction [19]: not
disruption of direct ERG:DNA-PKcs interaction [20]: not
binding to ERG [1]: failed to bind

LSFGSLP [EIP2, LSFGSLP]
DNA damage caused by oncogenic ERG (EWS-ERG fusion) [7]: reduce DNA damage
invasion potential [7]: reduced
DNA damage in cells containing the EWS-FLI1 fusion [8]: no effect
disruption of direct ERG:AR interaction [9]: disrupted
disruption of direct ERG:DNA-PKcs interaction [10]: disrupted
